In patent publication US8853258B2, “C-linked hydroxamic acid derivatives useful as antibacterial agents” (Pfizer Inc., priority 2009, dated 2014):
Converted amounts (≈) assume the structure as drawn. Where two headings read alike, the source gives them in different places.

Experiments:
[1] = system: Pseudomonas aeruginosa UI-18: Wild-type (PA-7); assay: MIC determination (CLSI), PA-7; format: cell-based; settings: for MIC: Pseudomonas aeruginosa, Table 3, read-out: PA-7 MIC
Outline: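 Wild-type P. aeruginosa UI-18 tested for minimum inhibitory concentration. Broth/agar dilution following CLSI standards (M7-A7, M100-S18).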

[2] = system: Klebsiella pneumoniae: Ciprofloxacin-resistant isolate, ESBL, clinical isolate (KP-3700); assay: MIC determination (CLSI), KP-3700; format: cell-based
Outline: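 Strain KP-3700, a clinical isolate producing extended-spectrum β-lactamases and resistant to ciprofloxacin, was tested. Minimum inhibitory concentrations determined via CLSI dilution methodology (M7-A7; M100-S18).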

[3] = system: Escherichia coli EC-1: VOGEL, mouse virulent; assay: MIC determination (CLSI), EC-1; format: cell-based; settings: for MIC: Escherichia coli, read-out: EC-1 MIC
Outline: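 E. coli Vogel, a mouse-virulent strain (EC-1), was tested. MICs were set by dilution susceptibility testing per CLSI standards M7-A7/M100-S18.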

[4] = target: Pseudomonas aeruginosa LpxC enzyme (Pseudomonas aeruginosa (strain ATCC 15692 / DSM 22644 / CIP 104116 / JCM 14847 / LMG 12228 / 1C / PRS 101 / PAO1), UniProt P47205); assay: IC50 Assay, LpxC Enzyme from P. aeruginosa (PA LpxC Enzyme IC50); format: biochemical
Experimental: In order to assess the compounds biological activity, selected in-vitro assays were conducted on selected compounds. One of the assays measured the compounds ability to disrupt the synthesis of lipopolysaccharide, LPS, which is a component of the outer membrane of Gram-negative bacteria. Disruption of this synthesis is lethal to the bacteria. The assay determined the compound's ability to inhibit LpxC, which is the first enzyme in the biosynthetic pathway for LPS (measured as IC50). Additionally, MICs (minimal inhibitory concentrations) were determined for several bacteria. The specific protocols are described below:
A) IC50 Assay, LpxC Enzyme from P. aeruginosa (Labled as PA LpxC Enzyme IC50
At the end of 1 hour, 5 ul of 1N HCl was added to stop the enzyme reaction; the plates were centrifuged, and then processed with the BioTrove Rapidfire HTMS Mass Spectrometry System. A no-enzyme control was used in calculating the IC50 values from the percent conversion values.

[5] = system: Acinetobacter baumanii/haemolyticus: Multidrug-resistant clinical isolate (AB-3167); assay: MIC determination (CLSI), AB-3167; format: cell-based; settings: for MIC: Acinetobacter baumannii, Table 3, read-out: AB-3167 MIC
Outline: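 Multidrug-resistant clinical isolate AB-3167 (A. baumannii/haemolyticus) tested for minimum inhibitory concentration following CLSI dilution susceptibility standards M7-A7 and M100-S18.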

[6] = Pseudomonas aeruginosa UI-18 (PA-7)
[7] = P. aeruginosa LpxC enzyme, read-out: PA LpxC enzyeme IC50
[8] = Acinetobacter baumanii/haemolyticus AB-3167
[9] = Table 3, read-out: PA LpxC enzyeme IC^50
[10] = Pseudomonas aeruginosa UI-18 wild-type PA-7
[11] = Escherichia coli EC-1 VOGEL, mouse virulent
[12] = Acinetobacter baumanii/haemolyticus multidrug-resistant clinical isolate AB-3167

Compound | KP-3700 MIC [2] | PA-7 MIC [1, 10] | EC-1 MIC [3, 11] | AB-3167 MIC [5, 12] | other results
C[C@@](CCc1ccc(-c2cnc3cc[nH]c3c2)cc1)(C(=O)NO)S(C)(=O)=O [Example 211] | ≧64 mg/L |  |  |  | PA-7 MIC [1, 6]: 32 µg/mL; EC-1 MIC ([3]; Escherichia coli EC-1): ≧64 mg/L; IC50 [4, 7]: 11.1 nM; AB-3167 MIC [5, 8]: ≧64 mg/L
C[C@@](CCc1ccc(-c2ccc(C#N)cn2)cc1)(C(=O)NO)S(C)(=O)=O [Example 202] | 16 µg/mL |  |  |  | PA-7 MIC [1, 6]: 1 µg/mL; EC-1 MIC ([3]; Escherichia coli EC-1): 8 µg/mL; IC50 [4, 7]: 0.808 nM; AB-3167 MIC [5, 8]: ≧64 mg/L
CC(CCc1ccc(OCc2cccnc2)cc1)(C(=O)NO)S(C)(=O)=O (centres unmarked) [Example 303, N-hydroxy-2-methyl-2-(methylsulfonyl)-4-[4-(pyridin-3-ylmethoxy)phenyl]butanamide] | ≧64 mg/L |  |  |  | MIC [1]: 16 µg/mL (≈ 42.3 µM); MIC [3]: ≥ 64 µg/mL; IC50 [4, 9]: 4.58 nM; MIC [5]: ≥ 64 µg/mL
Cc1cc(CCC(C)(C(=O)NO)S(C)(=O)=O)ccc1-c1ccc(C#N)cc1 (centres unmarked) [Example 162] | 16 µg/mL | 4 µg/mL | 2 µg/mL | 16 µg/mL | IC50 [4, 7]: 0.241 nM
Cc1cc(CCC(C)(C(=O)NO)S(C)(=O)=O)ccc1-c1ccccc1 (centres unmarked) [Example 159] | 16 µg/mL | 8 µg/mL | 4 µg/mL | 32 µg/mL | IC50 [4, 7]: 5.58 nM
CC(CCc1ccc(OCc2ccccc2F)cc1)(C(=O)NO)S(C)(=O)=O (centres unmarked) [Example 242, 4-{4-[(2-fluorobenzyl)oxy]phenyl}-N-hydroxy-2-methyl-2-(methylsulfonyl)butanamide] | 8 µg/mL |  |  |  | MIC [1]: ≥ 64 µg/mL; MIC [3]: 4 µg/mL (≈ 10.1 µM); IC50 [4, 9]: 0.655 nM; MIC [5]: ≥ 64 µg/mL
CC(CCc1ccc(-c2ccc(OCCO)cc2F)cc1)(C(=O)NO)S(C)(=O)=O (centres unmarked) [Example 144] | 4 µg/mL | 1 µg/mL | 1 µg/mL | ≧64 mg/L | 
CC(CCc1ccc(-c2ccc(F)cc2)cn1)(C(=O)NO)S(C)(=O)=O (centres unmarked) [Example 164] | 32 µg/mL | 4 µg/mL | 32 µg/mL | ≧64 mg/L | 
CC(CCc1ccc(-c2ccc(C#N)cc2)cc1)(C(=O)NO)S(C)(=O)=O (centres unmarked) [Example 29] | 2 µg/mL | 1 µg/mL | 1 µg/mL | ≧64 mg/L | 
Cn1ccnc1-c1ccc(-c2ccc(CCC(C)(C(=O)NO)S(C)(=O)=O)cc2)cc1 (centres unmarked) [Example 92] | 32 µg/mL | 32 µg/mL | 16 µg/mL | ≧64 mg/L | 
COc1ccc(-c2ccc(CCC(C)(C(=O)NO)S(C)(=O)=O)cn2)cc1 (centres unmarked) [Example 120] | 16 µg/mL | 8 µg/mL | 4 µg/mL | ≧64 mg/L | 
CC(CCc1ccc(-c2ccc(C#N)cc2)nc1)(C(=O)NO)S(C)(=O)=O (centres unmarked) [Example 122] | ≧64 mg/L | 8 µg/mL | 16 µg/mL | ≧64 mg/L | 
CC(C)c1ccc(-c2ccc(CCC(C)(C(=O)NO)S(C)(=O)=O)cc2)cc1 (centres unmarked) [Example 102] | 8 µg/mL | 4 µg/mL | 2 µg/mL | 4 µg/mL | 
CC(CCc1ccc(OCc2ccc(C#N)cc2)cc1)(C(=O)NO)S(C)(=O)=O (centres unmarked) [Example 233, 4-{4-[(4-cyanobenzyl)oxy]phenyl}-N-hydroxy-2-methyl-2-(methylsulfonyl)butanamide] | 16 µg/mL |  |  |  | MIC [1]: 4 µg/mL (≈ 9.94 µM); MIC [3]: 4 µg/mL (≈ 9.94 µM); MIC [5]: ≥ 64 µg/mL
CC(C)CCCOc1ccc(CCC(C)(C(=O)NO)S(C)(=O)=O)cc1 (centres unmarked) [Example 267, N-hydroxy-2-methyl-4-{4-[(4-methylpentyl)oxy]phenyl}-2-(methylsulfonyl)butanamide] | ≧64 mg/L |  |  |  | MIC [1]: 16 µg/mL (≈ 43.1 µM); MIC [3]: 8 µg/mL (≈ 21.5 µM); MIC [5]: 8 µg/mL (≈ 21.5 µM)
COc1ccc(-c2ccc(CCC(C)(C(=O)NO)S(C)(=O)=O)cc2)cc1 (racemic) [Example 55] | 2 µg/mL | 0.5 µg/mL | 0.5 µg/mL | 16 µg/mL | 

Compound | KP-3700 MIC [2] | PA-7 MIC [1, 10] | EC-1 MIC [3, 11] | AB-3167 MIC [5, 12] | other results
COc1ccc(OC)c(-c2ccc(CCC(C)(C(=O)NO)S(C)(=O)=O)cc2)c1 (centres unmarked) [Example 48] | ≧64 mg/L | ≧64 mg/L | 16 µg/mL | 16 µg/mL | 
CC(CCc1ccc(-c2ccc(F)cc2)cc1)(C(=O)NO)S(C)(=O)=O (centres unmarked) [Example 27] | 4 µg/mL | 1 µg/mL | 2 µg/mL | 8 µg/mL | 
COc1ccc(-c2ccc(CCC(C)(C(=O)NO)S(C)(=O)=O)cc2)cc1C (racemic) [Example 67] | 8 µg/mL | 16 µg/mL | 4 µg/mL | ≧64 mg/L | 
CC(CCc1ccc(-c2c(F)cccc2F)cc1)(C(=O)NO)S(C)(=O)=O (racemic) [Example 54] | 16 µg/mL | 1 µg/mL | 4 µg/mL | 16 µg/mL | 
CC(CCc1ccc(OCc2ccncc2)cc1)(C(=O)NO)S(C)(=O)=O (centres unmarked) [Example 316, N-hydroxy-2-methyl-2-(methylsulfonyl)-4-[4-(pyridin-4-ylmethoxy)phenyl]butanamide] | ≧64 mg/L |  |  |  | MIC [1]: 8 µg/mL (≈ 21.1 µM); MIC [3]: 32 µg/mL (≈ 84.6 µM); MIC [5]: 16 µg/mL (≈ 42.3 µM)
CC(CCc1ccc(-c2cc(F)c(OCCO)c(F)c2)cc1)(C(=O)NO)S(C)(=O)=O (centres unmarked) [Example 150] | 8 µg/mL | 2 µg/mL | 2 µg/mL | 32 µg/mL | 
CC(C)(O)c1ccc(-c2ccc(CCC(C)(C(=O)NO)S(C)(=O)=O)cc2)cc1 (centres unmarked) [Example 230] | 32 µg/mL |  |  |  | PA-7 MIC [1, 6]: 8 µg/mL; EC-1 MIC ([3]; Escherichia coli EC-1): 8 µg/mL; AB-3167 MIC [5, 8]: ≧64 mg/L
CC(CCc1ccc(-c2ccc(C#N)c(C#N)c2)cc1)(C(=O)NO)S(C)(=O)=O (centres unmarked) [Example 125] | 32 µg/mL | 4 µg/mL | 8 µg/mL | ≧64 mg/L | 
COc1ccc(F)c(-c2noc(COc3ccc(CCC(C)(C(=O)NO)S(C)(=O)=O)cc3)n2)c1 (centres unmarked) [Example 259, 4-(4-{[3-(2-fluoro-5-methoxyphenyl)-1,2,4-oxadiazol-5-yl]methoxy}phenyl)-N-hydroxy-2-methyl-2-(methylsulfonyl)butanamide] | ≧64 mg/L |  |  |  | MIC [1]: ≥ 64 µg/mL; MIC [3]: 16 µg/mL (≈ 32.4 µM); MIC [5]: ≥ 64 µg/mL
Cc1nc(-c2ccc(CCC(C)(C(=O)NO)S(C)(=O)=O)cc2)ccc1C#N (centres unmarked) [Example 131] | 16 µg/mL | 4 µg/mL | 4 µg/mL | ≧64 mg/L | 
CC(C)Oc1ccc(-c2ccc(CCC(C)(C(=O)NO)S(C)(=O)=O)cc2)cc1 (racemic) [Example 49] | 4 µg/mL | 4 µg/mL | 2 µg/mL | 8 µg/mL | 
Cc1cc(-c2ccc(CCC(C)(C(=O)NO)S(C)(=O)=O)cc2)cnc1N(C)C (centres unmarked) [Example 37] | ≧64 mg/L | 16 µg/mL | 16 µg/mL | ≧64 mg/L | 
CC(CCc1ccc(-c2cccc(CO)c2)cc1)(C(=O)NO)S(C)(=O)=O (racemic) [Example 84] | ≧64 mg/L | 16 µg/mL | ≧64 mg/L | ≧64 mg/L | 
CC(CCc1ccc(-c2ccc(Cl)cc2Cl)cc1)(C(=O)NO)S(C)(=O)=O (racemic) [Example 70] | 2 µg/mL | 1 µg/mL | 1 µg/mL | 32 µg/mL | 
CC(CCc1ccc(-c2cccnc2)cc1)(C(=O)NO)S(C)(=O)=O (racemic) [Example 61] | ≧64 mg/L | 16 µg/mL | ≧64 mg/L | ≧64 mg/L | 
CC(CCc1ccc(OCCc2ccncc2)cc1)(C(=O)NO)S(C)(=O)=O (centres unmarked) [Example 311, N-hydroxy-2-methyl-2-(methylsulfonyl)-4-[4-(2-pyridin-4-ylethoxy)phenyl]butanamide] | ≧64 mg/L |  |  |  | MIC [1]: 32 µg/mL (≈ 81.5 µM); MIC [3]: ≥ 64 µg/mL; MIC [5]: ≥ 64 µg/mL
